≈ marks a conversion by molar mass, not a printed value. Where “and” joins values, the source holds several entries; their conditions need not be identical. Identical values can stand only once.
Columns and labels:
Assay in all cases: ≥ marks a high value that may be exact or a test limit, other limits are often not marked, values filed in µg/mL are converted to µM
[1] = system: Bacillus subtilis CMCC 63501
[2] = system: Enterococcus faecalis ATCC 29212
Escherichia coli UB1005 = system: Escherichia coli UB1005
[3] = system: Pseudomonas aeruginosa ATCC 27853
[4] = system: Salmonella enterica subsp. enterica serovar Pullorum C79-13
[5] = system: Salmonella enterica subsp. enterica serovar Typhimurium C77-31
[6] = system: Staphylococcus aureus ATCC 29213
[7] = system: Staphylococcus aureus ATCC 43300
[8] = system: Staphylococcus epidermidis ATCC 12228
[9] = system: Bacillus subtilis ATCC 23857
[10] = system: Candida albicans ATCC 90028
[11] = system: Cryptococcus neoformans ATCC 28957
[12] = system: Escherichia coli ATCC 25922
Ramulariopsis gossypii = system: Ramulariopsis gossypii
[13] = system: Xanthomonas campestris pv. citri
[14] = system: Candida albicans ATCC 10231
Candida krusei CBS 573 = system: Candida krusei CBS 573
[15] = system: Candida parapsilosis CBS 604
[16] = system: Saccharomyces cerevisiae SZMC 0644
[17] = system: Acinetobacter baumannii ATCC 19606
Acinetobacter baumannii = system: Acinetobacter baumannii
[18] = system: Bacillus subtilis ATCC 6051
[19] = system: Cryptococcus neoformans ATCC 208821
[20] = system: Klebsiella pneumoniae ATCC 13883
[21] = system: Klebsiella pneumoniae ATCC 700603
[22] = system: Klebsiella pneumoniae ATCC BAA-2146
Klebsiella pneumoniae = system: Klebsiella pneumoniae
Pseudomonas aeruginosa = system: Pseudomonas aeruginosa

CC[C@H](C)[C@H](NC(=O)[C@H](CCCN=C(N)N)NC(=O)[C@H](CCCCN)NC(=O)[C@H](Cc1ccccc1)NC(=O)[C@H](CCC(=O)O)NC(=O)[C@H](CCCCN)NC(=O)CN)C(=O)N[C@H](C(=O)N[C@@H](CCCCN)C(=O)N[C@@H](Cc1c[nH]c2ccccc12)C(=O)N1CCC[C@H]1C(=O)N[C@@H](Cc1c[nH]c2ccccc12)C(=O)N[C@@H](Cc1c[nH]c2ccccc12)C(=O)N1CCC[C@H]1C(=O)N[C@@H](Cc1c[nH]c2ccccc12)C(=O)N[C@@H](CCCN=C(N)N)C(=O)N[C@@H](CCCN=C(N)N)C(N)=O)C(C)C [GKEFKRIVKWPWWPWRR]
MIC [1]: 4 µM (≈ 9.42 µg/mL)
MIC [2]: 4 µM (≈ 9.42 µg/mL)
MIC (Escherichia coli UB1005): 2 µM (≈ 4.71 µg/mL)
MIC [3]: 16 µM (≈ 37.7 µg/mL)
MIC [4]: 2 µM (≈ 4.71 µg/mL)
MIC [5]: 4 µM (≈ 9.42 µg/mL)
MIC [6]: 4 µM and 8 µM
MIC [7]: 2 µM (≈ 4.71 µg/mL)
MIC [8]: 8 µM (≈ 18.8 µg/mL)

CC[C@H](C)[C@H](NC(=O)[C@H](Cc1ccccc1)NC(=O)[C@@H](NC(=O)[C@H](CCC(N)=O)NC(=O)[C@H](Cc1ccc(O)cc1)NC(=O)[C@H](CCCN=C(N)N)NC(=O)[C@@H](NC(=O)[C@H](CC(C)C)NC(=O)[C@H](CCCCN)NC(=O)[C@H](CCC(N)=O)NC(=O)[C@H](CC(C)C)NC(=O)[C@H](CCC(=O)O)NC(=O)[C@H](CCCCN)NC(=O)[C@H](Cc1ccccc1)NC(=O)[C@H](CC(C)C)NC(=O)[C@H](CC(C)C)NC(=O)CN)[C@@H](C)CC)[C@@H](C)CC)C(=O)NCC(=O)N[C@@H](CCCCN)C(N)=O [GLLFKELQKLIRYQIFIGK]
MIC [9]: 16 µM (≈ 36.9 µg/mL)
MIC [10]: ≥ 64 µM
MIC [11]: ≥ 64 µM
MIC [12]: 26.7 µM (≈ 61.5 µg/mL)
MIC [3]: 128 µM (≈ 295 µg/mL)
MIC (Ramulariopsis gossypii): ≥ 64 µM
MIC [13]: ≥ 128 µM

CC[C@H](C)[C@H](N)C(=O)N[C@@H](C)C(=O)N[C@H](C(=O)N[C@@H](CO)C(=O)N1CCC[C@H]1C(=O)N[C@@H](Cc1ccc(O)cc1)C(=O)N[C@@H](Cc1ccc(O)cc1)C(=O)N[C@@H](C)C(=O)N[C@H]1CSSC[C@@H](C(=O)N2CCC[C@H]2C(=O)O)NC(=O)[C@H](CC(N)=O)NC1=O)[C@@H](C)O [IATSPYYACNCP]
MIC [14]: > 76.8 µM
MIC (Candida krusei CBS 573): ≥ 76.8 µM
MIC [15]: ≥ 76.8 µM
MIC [16]: ≥ 76.8 µM

CC[C@H](C)[C@@H]1NC(=O)CNC(=O)[C@H](CCCN=C(N)N)NC(=O)[C@H](Cc2ccc(O)cc2)NC(=O)[C@@H]2CSSC[C@H](NC1=O)C(=O)N[C@@H](Cc1ccc(O)cc1)C(=O)N[C@@H](CCCN=C(N)N)C(=O)N[C@@H](CCCN=C(N)N)C(=O)N[C@H](C(=O)N[C@@H](C)C(=O)O)CSSC[C@H](NC(=O)[C@H](Cc1c[nH]c3ccccc13)NC(=O)[C@@H](N)CCCCN)C(=O)N[C@@H](Cc1ccccc1)C(=O)N[C@@H](CCCN=C(N)N)C(=O)N[C@@H](C(C)C)C(=O)N2 [KWCFRVCYRGICYRRCA]
MIC [17]: 0.0572 µM (≈ 0.125 µg/mL)
MIC (Acinetobacter baumannii): 0.0572 µM (≈ 0.125 µg/mL)
MIC [18]: 0.0069 µM (≈ 0.015 µg/mL)
MIC [10]: 1.83 µM (≈ 3.99 µg/mL)
MIC [19]: 0.115 µM (≈ 0.25 µg/mL)
MIC [12]: 0.0069 µM (≈ 0.015 µg/mL)
MIC [20]: 0.0572 µM (≈ 0.125 µg/mL)
MIC [21]: 0.115 µM (≈ 0.25 µg/mL)
MIC [22]: 0.115 µM (≈ 0.25 µg/mL)
MIC (Klebsiella pneumoniae): 1.83 µM (≈ 3.99 µg/mL)
MIC [3]: 0.115 µM (≈ 0.25 µg/mL)
MIC (Pseudomonas aeruginosa): 0.229 µM (≈ 0.499 µg/mL)
MIC [7]: 0.229 µM (≈ 0.499 µg/mL)
